These results are taken from patent EP2423181A1, “Multitarget substituted biphenyl diol derivatives” (PROUS INSTITUTE FOR BIOMEDICAL RESEARCH S.A., priority 2010, dated 2012).

Counter-ions that a name gives are not always drawn.

Data set [1] has as its system mice. Kind of data set: Formalin test (antinociceptive activity). Type of data set: in vivo. The protocol:
The chemical irritant formalin test is used as a chronic pain model in animals. The s.c. administration of formalin to the paw of a mouse produces a biphasic nociceptive behavioral response, an early response (0-5 min after injection) and a late response (20-30 min after injection) (Hunskaar, S., Fasmer, O.B., Hole, K. Formalin test in mice, a useful technique for evaluating mild analgesics. J Neurosci Methods, 1985 ;14(1):69-76).
Aspirine and paracetamol are included as external active references in early and late response. Table 12. Early and late response inhibition in the formalin test.

In data set [2] the target is T1, Gonadotrophin-releasing hormone receptors (GnRH, LH-RH)R (Homo sapiens, UniProt P30968).
T1 construct: expressed in transfected cells; host or cells: Chem-1 cells
T1 sequence (P30968 1-328): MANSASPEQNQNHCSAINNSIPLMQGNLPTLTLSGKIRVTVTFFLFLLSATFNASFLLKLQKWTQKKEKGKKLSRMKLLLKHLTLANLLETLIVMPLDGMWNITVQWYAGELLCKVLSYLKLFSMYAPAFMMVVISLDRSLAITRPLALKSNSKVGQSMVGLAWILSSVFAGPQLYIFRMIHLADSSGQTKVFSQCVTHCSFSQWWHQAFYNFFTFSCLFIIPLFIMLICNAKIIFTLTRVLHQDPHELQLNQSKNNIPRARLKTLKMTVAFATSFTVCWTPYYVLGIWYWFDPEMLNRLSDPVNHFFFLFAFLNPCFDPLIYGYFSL
Kind of data set: GnRH radioligand binding assay. To be noted: GnRH radioligand binding, 10 µM; read-out: % Inhibition at 10 µM. The source says: Gonadotrophin-releasing hormone receptors (GnRH, LH-RH)R are a family of G protein-coupled receptors for GnRH, which promotes the secretion of luteinizing hormone (LH) and follicle-stimulating hormone (FSH). The activation of this receptor promotes, through estrogen receptors (ER) located in the cytosol, an increase in gene transcription and activation of tumor suppressor genes, DNA repair, cell division and cell proliferation. GnRH agonists are useful in breast, prostate and ovarian cancer, endometriosis, melanoma, rheumatoid arthritis and Alzheimer's disease. Table 17 presents the results from radioligand binding studies for GnRH for selected compounds using human recombinant Chem-1 cells (Halmos G, Schally AV, Pinski J, Vadillo-Buenfill M, Groot K. Down regulation of pituitary receptors for luteinizing hormone-releasing hormone (LH-RH) in rats by LH-RH antagonist Cetrorelix. Prco Natl Acad Sci USA 1996;93(6):2398-2402). The specific and non specific ligands used were [^125l] [D-Trp^6]-LH-RH (0.05 nM) and [D-Trp^6]-LH-RH ([…]) and after 60 min of incubation at 25°C in a 50 mM HEPES, pH 7.5, 5 mM MgCl2, 1 mM CaCl2, and 0.2% BSA the activity was measured by radioligand binding. Table 17. GnRH radioligand binding assay

A further data set deals with tumor prostate LNCaP-FGC. Put plainly: Tumor cell proliferation assay (alamarBlue). The format is cell-based. Conditions: Homo sapiens; tumor prostate LNCaP-FGC; read-out: IC50. The protocol: (§1) Changes in cell proliferation were detected based on the ability of viable cells to cause alamarBlue® to change its oxidized (non-fluorescent, blue) to a reduced (fluorescent, red) form. The alamarBlue® reaction allows the quantification of cell proliferation and examination of the metabolic activity of viable cells. Test substances were examined for activity on the proliferation of human or murine tumor cell lines at assay concentrations from 0.01 to 100 µM.

For a further data set, the system named is tumor ovary OVCAR-3. Kind of data set: Tumor cell proliferation assay (alamarBlue). Type of data set: cell-based. Conditions: Homo sapiens; tumor ovary OVCAR-3; read-out: IC50. On the procedure: as §1
For orientation: The colour change of resazurin is a common sign of viable cells or microbes.

A further data set concerns tumor brain U-87 MG. Put plainly: Tumor cell proliferation assay (alamarBlue). Type of data set: cell-based. To be noted: Homo sapiens; tumor brain U-87 MG; read-out: IC50. On the procedure:
as §1

The subject of another data set is tumor lung A549. Kind of data set: Tumor cell proliferation assay (alamarBlue). Conditions: Homo sapiens; tumor lung A549; read-out: IC50. Type of data set: cell-based. The protocol:
as §1

In the next data set the test system is tumor breast MCF-7. Kind of data set: Tumor cell proliferation assay (alamarBlue). Type of data set: cell-based. To be noted: Homo sapiens, MCF7; tumor breast MCF-7; read-out: IC50. On the procedure:
as §1

In another data set the test system is tumor breast T-47D. Put plainly: Tumor cell proliferation assay (alamarBlue). Type of data set: cell-based. To be noted: Homo sapiens, T47D; tumor breast T-47D; read-out: IC50. The protocol: as §1
The subject of the next data set is tumor colon HCT-116. Kind of data set: Tumor cell proliferation assay (alamarBlue). Conditions: Homo sapiens; tumor colon HCT-116; read-out: IC50. Type of data set: cell-based. On the procedure:
as §1

Another data set has as its system tumor liver HepG2. Put plainly: Tumor cell proliferation assay (alamarBlue). Conditions: Homo sapiens; tumor liver HepG2; read-out: IC50. Type of data set: cell-based. On the procedure: as §1
The test system of another data set is tumor liver Hep 3B. Kind of data set: Tumor cell proliferation assay (alamarBlue). The format is cell-based. To be noted: Homo sapiens, Hep3B; tumor liver Hep 3B; read-out: IC50. On the procedure:
as §1

A further data set has as its system tumor leukaemia K562. Put plainly: Tumor cell proliferation assay (alamarBlue). The format is cell-based. To be noted: Homo sapiens; tumor leukaemia K562; read-out: IC50. The protocol:
as §1

In a further data set the test system is tumor breast MDA-MB-231. Kind of data set: Tumor cell proliferation assay (alamarBlue). The format is cell-based. To be noted: Homo sapiens; tumor breast MDA-MB-231; read-out: IC50. On the procedure: as §1
Another data set has as its target T2, Src (Homo sapiens, UniProt P12931).
T2 construct: host or cells: Sf9 insect cells
Put plainly: Src protein tyrosine kinase inhibition (ELISA of Poly[Glu:Tyr-P]). The format is biochemical. Conditions: Src, at 10 µM; read-out: % Inhibition. The protocol: Src protein tyrosine kinase activity was assessed in human recombinant insect Sf9 cells using as a substrate Poly(Glu:Tyr) at 10 µg/mL with preincubation and incubation times of 15 and 5 min, respectively, at 22°C in 50 mM HEPES, pH 7.4, 1 mM DTT, 20 mM MgCl2 and 0.2 mM Na3VO4. An ELISA quantitation method of Poly[Glu:Tyr-P] was employed (Farley, K et al. Anal Biochem, 1992, 203, 151-157). Table 4. Inhibition of Src at 10 µM

A further data set concerns tumor melanoma B16-FO. Kind of data set: Tumor cell proliferation assay (alamarBlue). The format is cell-based, murine. Conditions: Mus musculus; tumor melanoma B16-FO; read-out: IC50. On the procedure:
as §1

Data set [3] deals with mice. Kind of data set: Hot plate test (analgesic activity). Conditions: 10 and 30 mg/kg i.p. Type of data set: in vivo. The protocol: The hot plate test was used as an animal model of thermally-induced pain. The inhibitory activity measured on the time licking and biting induced by temperature (30 sec max at 55°C) indicates analgesic effect. […] Table 13. Analgesic activity of example 1 in the hot plate test
(In hot-plate and tail-flick tests a longer latency is read as antinociception.)

Data set [4] can be described thus: Maximum Tolerated Dose after acute administration. Conditions: mouse, in vivo, ip, mice. The protocol:
The Maximum Tolerated Dose (MTD) in mice was determined for selected compounds. The protocol of the studies was in accordance with the standard guidelines for drug development: • (htp://dtp.nci.nih.gov/branches/btb/acute tox.html). Table 10. Maximum Tolerated Doses in mice after acute i.p. administration

Another data set deals with 5-HT Uptake. Put plainly: Serotonin uptake inhibition in brain synaptosomes. Type of data set: biochemical, rat. On the procedure:
Inhibition of serotonin uptake has been tested in rat brain synaptosomes using [^3H]serotonin (0.2 µCi/ml) after 15 min of incubation at 37°C and measuring the incorporation of [^3H]serotonin into synaptosomes by scintillation counting (Perovic, S. and Muller, W.E.G. Arzneim-Forsch. Drug Res., 1995, 45, 1145-1148).

The next data set addresses T3, SERT (Homo sapiens, UniProt P31645).
T3 construct: expressed in transfected cells; host or cells: CHO cells
Put plainly: Serotonin transporter binding ([3H]imipramine). The protocol:
(§2) Serotonin transporter (SERT) inhibitors increase extracellular concentrations of serotonin (5-HT) and amplify signals sent by serotonin neurons. Agents that block SERT have been studied for the treatment of several diseases including depression and anxiety. Inhibitors of monoamine transporters have been tested for NET (Pacholczyk, T. et al. Nature, 1991, 350, 350-354) and SERT (Tatsumi, M. et al. Eur J Pharmacol, 1999, 368, 277-283). Norepinephrine transport was assessed in human recombinant CHO cells using [^3H]nisoxetine as a ligand at 1 nM after 60 min of incubation at 22°C, and a scintillation method as a method of detection. Serotonine transport was assessed in human recombinant CHO cells using [^3H]imipramine as a ligand at 2 nM after 60 min of incubation at 22°C, and a scintillation counting as a method of detection.

The target in a further data set is T4, NET (Homo sapiens, UniProt P23975).
T4 construct: expressed in transfected cells; host or cells: CHO cells
T4 sequence (P23975 whole entry): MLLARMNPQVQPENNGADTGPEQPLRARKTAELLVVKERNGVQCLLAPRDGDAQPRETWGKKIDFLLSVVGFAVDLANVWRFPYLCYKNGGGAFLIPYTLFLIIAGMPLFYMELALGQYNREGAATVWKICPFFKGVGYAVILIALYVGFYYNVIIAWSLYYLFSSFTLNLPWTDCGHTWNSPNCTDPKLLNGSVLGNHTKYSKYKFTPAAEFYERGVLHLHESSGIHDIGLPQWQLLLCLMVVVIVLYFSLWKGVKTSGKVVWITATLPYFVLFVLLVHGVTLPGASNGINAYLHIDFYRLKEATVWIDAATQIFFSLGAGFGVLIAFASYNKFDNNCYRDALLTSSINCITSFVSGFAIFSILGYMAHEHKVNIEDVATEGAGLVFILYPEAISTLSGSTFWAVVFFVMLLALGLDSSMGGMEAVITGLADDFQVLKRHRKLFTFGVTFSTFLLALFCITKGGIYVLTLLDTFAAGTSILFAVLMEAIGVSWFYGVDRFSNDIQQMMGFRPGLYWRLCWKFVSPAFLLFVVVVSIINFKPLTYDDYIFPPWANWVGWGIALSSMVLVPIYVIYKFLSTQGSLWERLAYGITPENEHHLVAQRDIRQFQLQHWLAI
Kind of data set: Norepinephrine transporter binding ([3H]nisoxetine). On the procedure:
as §2

For the next data set, the target named is T5, 5-HT2A receptor (Homo sapiens, UniProt P28223).
T5 construct: expressed in transfected cells; host or cells: HEK-293 cells
T5 sequence (P28223 whole entry): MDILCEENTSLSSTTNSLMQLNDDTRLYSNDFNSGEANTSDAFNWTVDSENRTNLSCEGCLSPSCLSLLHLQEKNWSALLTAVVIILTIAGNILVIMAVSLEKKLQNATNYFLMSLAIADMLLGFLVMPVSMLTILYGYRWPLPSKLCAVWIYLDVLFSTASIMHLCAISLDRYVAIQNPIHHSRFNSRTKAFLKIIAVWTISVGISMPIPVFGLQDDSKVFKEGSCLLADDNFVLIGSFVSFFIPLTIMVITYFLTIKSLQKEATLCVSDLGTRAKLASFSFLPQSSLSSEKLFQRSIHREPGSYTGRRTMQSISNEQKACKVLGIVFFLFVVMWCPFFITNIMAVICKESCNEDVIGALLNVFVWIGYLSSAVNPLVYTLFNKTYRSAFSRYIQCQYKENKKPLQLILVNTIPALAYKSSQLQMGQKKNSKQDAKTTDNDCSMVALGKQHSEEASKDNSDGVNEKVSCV
Kind of data set: 5-HT2A receptor binding ([3H]ketanserin). To be noted: 5-HT2A binding. The protocol: The 5-HT2A receptor belongs to the G-protein-coupled receptor (GPCR) target class linked to anxiety and depression. Using human recombinant HEK-293 cells, the binding of compounds of formula (I) to this receptor was determined. The ligand used was [^3H]ketanserin at 0.5 nM and the quantification of the activity was assessed by scintillation counting after 60 min at 22°C (Bonhaus, et al. Br J Pharmacol, 1995, 115, 622-628). Table 16. Inhibition of 5-HT2A binding

For the next data set, the system named is NE Uptake. Put plainly: Norepinephrine uptake inhibition. Type of data set: biochemical.
Data set [5] has as its system mice. Conditions: i.p. in mice, comparative antineoplastic agents; cited from earlier work.

T3 sequence (P31645 whole entry): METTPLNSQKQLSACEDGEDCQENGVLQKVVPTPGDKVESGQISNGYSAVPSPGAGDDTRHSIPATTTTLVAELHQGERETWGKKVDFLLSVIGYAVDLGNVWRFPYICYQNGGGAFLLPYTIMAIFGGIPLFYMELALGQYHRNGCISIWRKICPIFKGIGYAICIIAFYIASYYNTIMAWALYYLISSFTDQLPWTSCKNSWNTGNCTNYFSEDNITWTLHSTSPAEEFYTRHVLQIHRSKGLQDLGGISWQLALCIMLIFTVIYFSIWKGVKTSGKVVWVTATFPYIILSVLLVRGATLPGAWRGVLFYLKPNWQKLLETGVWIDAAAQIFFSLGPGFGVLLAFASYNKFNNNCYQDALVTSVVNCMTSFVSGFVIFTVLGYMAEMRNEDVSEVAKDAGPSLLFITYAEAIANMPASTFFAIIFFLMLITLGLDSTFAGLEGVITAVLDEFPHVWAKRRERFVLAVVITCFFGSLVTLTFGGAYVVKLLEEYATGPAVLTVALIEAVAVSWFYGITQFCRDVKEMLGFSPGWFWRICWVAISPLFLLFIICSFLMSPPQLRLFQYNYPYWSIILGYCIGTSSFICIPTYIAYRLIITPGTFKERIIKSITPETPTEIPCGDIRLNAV
T2 sequence (P12931 whole entry): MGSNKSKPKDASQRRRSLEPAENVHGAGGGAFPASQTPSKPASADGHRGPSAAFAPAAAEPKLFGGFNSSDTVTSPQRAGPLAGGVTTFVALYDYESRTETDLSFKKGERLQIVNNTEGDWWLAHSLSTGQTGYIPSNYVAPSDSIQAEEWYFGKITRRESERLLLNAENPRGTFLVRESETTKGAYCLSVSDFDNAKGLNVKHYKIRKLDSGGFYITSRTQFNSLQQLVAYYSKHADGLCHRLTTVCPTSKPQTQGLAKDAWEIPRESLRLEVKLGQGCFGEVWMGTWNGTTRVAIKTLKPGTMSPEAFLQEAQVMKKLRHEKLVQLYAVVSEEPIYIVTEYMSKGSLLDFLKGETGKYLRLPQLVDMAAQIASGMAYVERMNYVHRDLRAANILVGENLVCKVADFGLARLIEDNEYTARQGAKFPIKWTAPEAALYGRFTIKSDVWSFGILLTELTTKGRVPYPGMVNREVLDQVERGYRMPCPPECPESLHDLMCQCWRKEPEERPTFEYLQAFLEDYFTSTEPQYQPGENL

For the compound `C=CCc1ccc(OC)c(-c2cc(CC=C)ccc2OC(CCNC)c2ccccc2)c1.Cl` (stereo not drawn) [Example 2, 5,5'-Diallyl-2-methoxy-2'-[3-(methylamino)-1-phenylpropoxy]biphenyl hydrochloride], in the data set with mice [1] (30 mg/kg i.p, early and late phases, potency similar to morphine 10 mg/kg i.p.), the “antinociceptive activity in the formalin test” value was “to a lesser extent”. Moreover, the “antinociceptive activity in the formalin model” value in the data set with mice [1] (10 and 30 mg/kg i.p, late phase) is recorded as “dose-dependent antinociceptive activity”. For the same compound, the “Early Response” value in the data set on mice [1] (formalin test, dose 30 mg/Kg i.p., early response 0-5 min) was “inactive”. Further, the “Late Response” value with mice [1] (formalin test, dose 30 mg/Kg i.p., late response 20-30 min) is given as “active”. In addition, the inhibition at 10 µM in data set [2] was determined as 33%; at Src it was 55%. Besides, the IC50 in the data set with tumor prostate LNCaP-FGC worked out at 1.8 µM; in the data set with tumor ovary OVCAR-3, 2.3 µM; in the data set with tumor brain U-87 MG, 2.2 µM; in the data set on tumor lung A549, 1.3 µM; in the data set on tumor breast MCF-7, 2.6 µM; in the data set with tumor breast T-47D, 12 µM. For the same compound, the IC50 in the data set on tumor colon HCT-116 stood at 2.1 µM; in the data set on tumor liver HepG2, 3.6 µM; in the data set on tumor liver Hep 3B, 3.2 µM; with tumor leukaemia K562 it was 4.2 µM; with tumor breast MDA-MB-231, 2.1 µM; in the data set with tumor melanoma B16-FO, 2.3 µM. For the same compound, the “antinociceptive activity in the hot plate test” value in the data set on mice [3] is recorded as “Dose-dependent antinociceptive activity”. This compound also came in with an MTD in data set [4] of 50 mg/kg.

As for `C=CCc1ccc(OCC)c(-c2cc(CC=C)ccc2OC(CCNC)c2ccccc2)c1` (stereo not drawn) [Example 3, 5,5'-Diallyl-2-ethoxy-2'-[3-(methylamino)-1-phenylpropoxylbiphenyl hydrochloride], the “% Inhibition (5.0 µM) 5-HT Uptake” value with 5-HT Uptake came out at 52%. Further, the inhibition at 5 µM at SERT was found to be 73%; at NET, 87%; at 5-HT2A receptor it was 86%. In addition, the “% Inhibition (5.0 µM) NE Uptake” value with NE Uptake came to 85%.

As for `N.N.[Cl][Pt][Cl]` [cisplatin], the MTD in the data set with mice [5] was 4 mg/kg.

Turning to `CC(=O)O[C@H]1C(=O)[C@@]2(C)[C@H]([C@H](OC(=O)c3ccccc3)[C@]3(O)C[C@H](OC(=O)[C@H](O)[C@@H](NC(=O)c4ccccc4)c4ccccc4)C(C)=C1C3(C)C)[C@]1(OC(C)=O)CO[C@@H]1C[C@@H]2O` [placlitaxel], the MTD in the data set with mice [5] was 20 to 50 mg/kg.

Broadly, the inhibition is how much of the control response was suppressed. One may read the IC50 as the point on the concentration scale where inhibition reaches its midpoint.
